Results published in paper PMC4079689, “HIV Treatments Reduce Malaria Liver Stage Burden in a Non-Human Primate Model of Malaria Infection at Clinically Relevant Concentrations In Vivo” (PLoS ONE, 2014).
Where two headings read alike, the source gives them in different places.

Tests used:
[1] = tested on: P. knowlesi asexual blood stage parasites; design: method as in PMID 21486958; settings: rhesus macaques; cited from earlier work
[2] = Indian origin, rhesus monkey, in vivo, po
[3] = in vivo; settings: Indian origin, rhesus monkey, po; for Cmax: 50 mg/kg
[4] = human historical data, cited from earlier work
[5] = design: method as in Ibarra et al. Eur J Pharm Sci. 2012;46(5):516–21; settings: human historical data, LPV-RTV; ref Ibarra et al. Eur J Pharm Sci. 2012;46(5):516–21; cited from earlier work
[6] = Pharmacokinetic study, single dose by gavage, plasma HPLC-MS/MS
[7] = TMP-SMX, ref Patel et al. 1980, Dudley et al. 1984
[8] = rhesus JMF, dosing regimen LPV-RTV+TMP-SMX, sedated
[9] = rhesus JRH, dosing regimen LPV-RTV+TMP-SMX, awake
[10] = rhesus LK8A, dosing regimen LPV-RTV alone, sedated

CC(C)(C)NC(=O)[C@@H]1CN(Cc2cccnc2)CCN1C[C@@H](O)C[C@@H](Cc1ccccc1)C(=O)N[C@H]1c2ccccc2C[C@H]1O [indinavir]
Killing activity against P. knowlesi [1]: exhibited killing activity

COc1cc(Cc2cnc(N)nc2N)cc(OC)c1OC [Trimethoprim]
Cmax [2]: 130 ng/mL
AUC(0-t) ([3]; in vivo): 1730 ng·h/mL
T1/2 [4, 7]: 8 to 10 h
Tmax [4, 7]: 1 to 4 h
AUC0–24 ([4]; dose 5 mg/kg trimethoprim and 25 mg/kg sulfamethoxazole iv, ref Dudley et al. Antimicrob Agents Chemother 1984;26:811–814): 32.6 ^2 µg*hr/mL
Cmax ([4]; dose 160 mg trimethoprim and 800 mg sulfamethoxazole, ref Patel et al. Clin Pharmacokinet 1980;5:405–423): 1–2 ^1 µg/mL

Cc1cccc(C)c1OCC(=O)N[C@@H](Cc1ccccc1)[C@@H](O)C[C@H](Cc1ccccc1)NC(=O)[C@H](C(C)C)N1CCCNC1=O [Lopinavir]
AUC0–24 [5]: 95000 ng·h/mL
Cmax [5]: 7060 ng/mL
T1/2 [5]: 5.2 h
Tmax [5]: 3 to 6 h
Cmax [2]: 10900 ng/mL
AUC(0-t) ([3]; in vivo): 171000 ng·h/mL
Cmax ([3]; in vivo): 10300 ng/mL

CC(C)c1nc(CN(C)C(=O)N[C@H](C(=O)N[C@@H](Cc2ccccc2)C[C@H](O)[C@H](Cc2ccccc2)NC(=O)OCc2cncs2)C(C)C)cs1 [Ritonavir]
AUC0–24 [5]: 4310 ng·h/mL
T1/2 [5]: 5.12 h
Tmax [5]: 3 to 6 h
AUC0–24 [6, 8]: 11100 ng·h/mL
Tmax [6, 8]: 24.0 h
AUC0–24 [6, 9]: 23200 ng·h/mL
Tmax [6, 9]: 6.0 h
AUC0–24 [6, 10]: 37800 ng·h/mL
Tmax [6, 10]: 8.0 h
Cmax ([3]; plasma): 3600 ng/mL
